Experimental findings from patent US11926679B2, “Oligopeptide search method, oligopeptide, modified peptide, and immunoassay method” (ZEON CORPORATION, priority 2016, dated 2024) are described below.

The nature of assay [1]: Evaluation of adhesiveness to the container (anti-6-His detection, absorbance at 450 nm). In kind it is binding. Here is the method: Polypeptide 1, Polypeptide 2, and a human normal IgG antibody (manufactured by Wako Pure Chemical Industries, Ltd.) were dissolved in a PBS solution and 10% DMSO in PBS (10% DMSO PBS) each in a concentration of 10 μg/ml to give various solutions.
To a 96-well plate obtained by injection molding of a hydride of a norbornene-based ring-opened polymer [Zeonor® 1060R, manufactured by Zeon Corporation] (hereinafter referred to as a “1060R plate”) and a 96-well plate made of polystyrene (product name “Falcon® (Falcon is a registered trademark in Japan, other countries, or both)”, manufactured by Corning Incorporated; hereinafter referred to as a “TCPS plate”), each of the polypeptide solutions prepared above was added in an amount of 50 μL/well (N=3) and the plates were allowed to stand at room temperature (25° C.) for 1 hour.
After allowed to stand, the insides of the wells of the 1060R plate and the TCPS plate were washed three times with T-TBS (0.05 m Tris hydrochloric acid, 0.15 m sodium chloride, 0.05% Tween® 20; pH 7.6). […]
For the wells of each plate, the absorbance at 450 nm was measured using a well plate reader apparatus (manufactured by CORONA ELECTRIC Co., Ltd.).

Assay [2] relates to CHO (Chinese Hamster Ovary) cells. As to the kind of experiment: CHO cell shape on polypeptide-coated 1060R plate. In kind it is cell-based. As to conditions: microscope, 5 hours after the start of culture, serum-free medium, coating 10 μg/ml. The protocol: Each of the solutions which this Polypeptide 3 and Polypeptide 2 obtained in Example 2 were dissolved in PBS in a concentration of 10 μg/ml respectively was filter-sterilized. To an EOG-sterilized 1060R plate, 50 μL per well of each of the resultant solution was added. The plates were allowed to stand at room temperature (25° C.) for 1 hour.
After allowed to stand, each of the 1060R plates incubated with Polypeptide 3 and Polypeptide 2 obtained in Example 2 was washed three times with sterilized PBS to obtain a Polypeptide 3-coated 1060R plate and a Polypeptide 2-coated 1060R plate.
To wells of the two plates thus obtained and a 1060R plate that was not coated with a polypeptide, CHO (Chinese Hamster Ovary) cells suspended in a serum-free medium (serum free medium ESF SFM Serum⋅Free Medium for Hybridoma, CHO & 293 Cells, manufactured by Expression Systems, LLC) were added and maintained the culture in a CO2 incubator at 37° C.

The nature of assay [3]: Phage display peptide library search on norbornene-based polymer culture dish. It counts as binding. As to conditions: tertiary phage solutions; washes with PBS, Glycine HCl pH 2, Glycine NaOH pH 10, then PBS containing 10% DMSO. The protocol:
As a phage display peptide library, Ph.D.-C7C Phage Display Peptide Library Kit (manufactured by New England Biolabs Japan Inc.) was used.
The phage solution was dissolved in a phosphate buffer (PBS; a mixed solution of 137 mmol/l NaCl, 8.1 mmol/l Na2HPO4, 2.68 mmol/l KCl, and 1.47 mmol/l KH2PO4, pH 7.4) to give a peptide library.
Thereafter, the bottom of the culture dish was washed three times with PBS.
Subsequently, it was washed once with 40 mM Glycine HCl Buffer (pH 2.2) adjusted to pH 2, and further, 40 mM Glycine NaOH (pH 10) adjusted to pH 10 was added dropwise to it.
The dropped solution was collected, and the pH was immediately neutralized with a dilute hydrochloric acid (pH=7.0) to obtain a “phage solution washed with an alkali and collected”.
Subsequently, a PBS containing 10% DMSO was added dropwise to the bottom of the culture dish, and the dropped solution was collected to obtain a “phage solution washed with DMSO and collected.” […]
The gene sequences of the phages contained in the two phage solutions obtained by acquisition of the tertiary phage solutions were read to obtain corresponding amino acid sequences.

Assay [4] can be described thus: Blocking effect against non-specific adsorption of antibody, 1060R plate. The note with it: solution containing no protein, 0.05% or 0.2% in PBS, FIG. 8. From the text: (§1) The container on which the synthetic BNP antigen was immobilized was blocked in the same manner as in Example 5, using a phosphate buffered saline containing 10% blocking agent (manufactured by NACALAI TESQUE, INC., product name “Blocking One”) containing a widely used casein (“Blocking One having a final concentration of 10%”), a phosphate buffered saline containing 0.05% Tween® 20 (“Tween® 20 PBS having a final concentration of 0.05%”), and a phosphate buffered saline containing 0.2% Tween® 20 (“Tween® 20 PBS having a final concentration of 0.2%”) as blocking agents, and compared to the condition without the blocking treatment.
(§2) As microwell plates, the 1060R plate (experimental example) and the PS plate (comparative example) were used. […]
(§3) After the resultant was allowed to stand, the solution in the wells was removed, followed by washing three times with a phosphate buffered saline containing 0.05% Tween® 20. […] After adding 0.1 M sulfuric acid as a stop solution, the absorbance at 450 nm was measured with a light absorption plate reader.
(§4) The value for each condition was determined using the relative value to the measured absorbance value of the well that was not subjected to blocking in the 1060R plate.

Assay [5] in a line: Blocking effect against non-specific adsorption of antibody, PS plate. As to conditions: containing no protein, FIG. 8.
From the text: as §1, §2, §3, §4

Assay [6] in a line: Adsorption of antigen to multi-well plate, 1060R plate. It counts as binding. As to conditions: FIG. 6. An excerpt: (§5) The condition for adsorption of an antigen to a multi-well plate was examined. A comparison of adsorption of an antigen was made by using a 96-well plate obtained by injection molding of a hydride of a norbornene-based ring-opened polymer [Zeonor® 1060R, manufactured by Zeon Corporation] (hereinafter referred to as a “1060R plate”) and a 96-well plate made of polystyrene (product name “SUMILON® (SUMILON is a registered trademark in Japan, other countries, or both) ELISA Plate H”, manufactured by Sumitomo Bakelite Co., Ltd.; hereinafter referred to as a “PS plate”).
(§6) A peptide in which the amino acid sequence of […](SEQ ID NO: 7) that has the property of specifically attaching to a norbornene-based polymer is bound to the N terminal of the amino acid sequence of Cys-Lys-Val-Leu-Arg-Arg-His (SEQ ID NO: 6) of the antibody recognition site of the human BNP (brain natriuretic peptide) (hereinafter referred to as a “synthetic BNP antigen”) was synthesized. […]
(§7) Then, the synthetic BNP antigen immobilized in the plate was allowed to develop a color using a coloring reagent (manufactured by NACALAI TESQUE, INC., product name “ELISA POD Substrate TMB Solution”), and quenched with a dilute sulfuric acid, followed by measuring the absorbance at 450 nm by an absorbance plate reader.

A short description of assay [7]: Adsorption of antigen to multi-well plate, PS plate. It counts as binding. The note with it: FIG. 6.
From the text: as §5, §6, §7

Consider ACTVDSCLTCGGGGGHHHHHH [Polypeptide 2], for which the “absorbance at 450 nm of the 1060R plate compared with the TCPS plate” value in assay [1] (10 μg/ml polypeptide, 1 hour at room temperature, FIG. 2) is “higher than that of the TCPS plate”. Moreover, the “adhesiveness to a norbornene-based polymer” value in assay [1] (conclusion from FIG. 2) is recorded as “high adhesiveness”. The “shape of CHO cells on coated 1060R plate” value in assay [2] is “rounded shapes”.

Take “ACTVDSCLTCGGGGGRGDSPHHHHHH [Polypeptide 3]”: the “shape of CHO cells on coated 1060R plate” value in assay [2] is reported as “shapes in which the cells were stretched”.

For the substance TVDNSLA [Thr-Val-Asp-Asn-Ser-Leu-Ala], the “adhesion/elution behaviour of the amino acid sequence on the norbornene-based polymer dish” value in assay [3] is given as “eluting at a high pH”.

With TVDSCLT [Thr-Val-Asp-Ser-Cys-Leu-Thr], the “adhesion/elution behaviour of the amino acid sequence on the norbornene-based polymer dish” value in assay [3] is “continued to adhere even after washed with an alkali and was eluted with an organic solvent”.

For the substance “polyoxyethylene sorbitan monolaurate [Tween® 20]”, the results for the “blocking effect (relative absorbance at 450 nm)” value in assay [4] and in assay [5] were “a blocking effect was observed” and “a blocking effect was lower as compared to a blocking agent containing a protein”, respectively.

On to “synthetic BNP antigen: peptide in which SEQ ID NO: 7 (norbornene polymer-attaching sequence) is bound to the N terminal of SEQ ID NO: 6, antibody recognition site of human BNP (ACTVDSCLTCGGGGGSSSGLGCKVLRRH)”, for which the results for the “attachment of antigen to the plate (absorbance at 450 nm)” value in assay [6] and in assay [7] were “attached” and “not attached”, respectively.
